ChEMBL document CHEMBL1201862, “PubChem BioAssay data set” (2004)
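All cell lines were grown in 96-well plates and treated with compound for 48 hours. Here, GI50 denotes the concentration required for 50% inhibition of growth.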 Active and inactive are the calls of the source. No stated cut-off is given here; in the data, active = GI50 up to about 1.1 µM and inactive = higher.

What was measured:
Assay in all cases: inhibition of tumour cell growth, NCI panel, 48 h
HCC 2998 = system: HCC 2998
A498 = system: A498
HCT-15 = system: HCT-15
SF-295 = system: SF-295
UACC-257 = system: UACC-257
TK-10 = system: TK-10
CAKI-1 = system: CAKI-1
OVCAR-3 = system: OVCAR-3
MCF7 = system: MCF7
SNB-75 = system: SNB-75
CCRF-CEM = system: CCRF-CEM
HCT-116 = system: HCT-116
DU-145 = system: DU-145
SK-MEL-2 = system: SK-MEL-2
IGROV-1 = system: IGROV-1
SN12C = system: SN12C
HT-29 = system: HT-29
NCI-H522 = system: NCI-H522
MOLT-4 = system: MOLT-4
K562 = system: K562

Cc1ccc(C(C2C(=O)N(C)C(=O)N(C)C2=O)C(F)(F)C(=O)N(C)C)cc1 (centres undefined)
GI50 (HCC 2998): > 100 µM (inactive) | GI50 (A498): > 100 µM (inactive) | GI50 (HCT-15): > 100 µM | GI50 (SF-295): > 100 µM (inactive) | GI50 (UACC-257): > 100 µM (inactive) | GI50 (TK-10): > 100 µM (inactive) | GI50 (CAKI-1): > 100 µM (inactive) | GI50 (OVCAR-3): > 100 µM (inactive) | GI50 (MCF7): > 100 µM (inactive) | GI50 (SNB-75): > 100 µM (inactive) | GI50 (CCRF-CEM): > 100 µM (inactive) | GI50 (HCT-116): > 100 µM (inactive) | GI50 (DU-145): > 100 µM (inactive) | GI50 (SK-MEL-2): > 100 µM (inactive)

COC(=O)[C@@]12CC[C@]1(C(=O)OC)C1C(C)=CC(=O)O[C@@]12C (some centres undefined)
GI50 (HCC 2998): > 100 µM (inactive) | GI50 (HCT-15): > 100 µM | GI50 (SF-295): > 100 µM (inactive) | GI50 (UACC-257): > 100 µM (inactive) | GI50 (TK-10): > 100 µM (inactive) | GI50 (OVCAR-3): > 100 µM (inactive) | GI50 (IGROV-1): > 100 µM (inactive) | GI50 (MCF7): > 100 µM (inactive) | GI50 (SNB-75): > 100 µM (inactive) | GI50 (CCRF-CEM): > 100 µM (inactive) | GI50 (HCT-116): > 100 µM (inactive) | GI50 (DU-145): > 100 µM (inactive) | GI50 (SN12C): > 100 µM (inactive) | GI50 (HT-29): > 100 µM (inactive) | GI50 (NCI-H522): > 100 µM (inactive) | GI50 (MOLT-4): > 100 µM (inactive) | GI50 (K562): > 100 µM (inactive)

O=C(Sc1n[nH]c(=O)[nH]c1=O)c1cccc2nc3ccccc3nc12
GI50 (HCC 2998): 27.9 µM (inactive) | GI50 (A498): > 100 µM (inactive) | GI50 (HCT-15): 26.7 µM | GI50 (SF-295): 57 µM (inactive) | GI50 (UACC-257): 13.2 µM (inactive) | GI50 (TK-10): > 100 µM (inactive) | GI50 (CAKI-1): 78.3 µM (inactive) | GI50 (OVCAR-3): 50 µM (inactive) | GI50 (IGROV-1): > 100 µM (inactive) | GI50 (MCF7): 7.67 µM (inactive) | GI50 (CCRF-CEM): > 100 µM (inactive) | GI50 (HCT-116): > 100 µM (inactive) | GI50 (DU-145): 10.6 µM (inactive) | GI50 (SN12C): 34.3 µM (inactive) | GI50 (HT-29): 13.5 µM (inactive) | GI50 (SK-MEL-2): 68.2 µM (inactive) | GI50 (MOLT-4): > 100 µM (inactive) | GI50 (K562): 47.9 µM (inactive)

CSCCC(NCc1c(O)ccc2ccc(=O)oc12)C(=O)O (centres undefined)
GI50 (HCC 2998): > 100 µM (inactive) | GI50 (HCT-15): > 100 µM | GI50 (SF-295): > 100 µM (inactive) | GI50 (UACC-257): > 100 µM (inactive) | GI50 (TK-10): > 100 µM (inactive) | GI50 (CAKI-1): > 100 µM (inactive) | GI50 (OVCAR-3): > 100 µM (inactive) | GI50 (IGROV-1): > 100 µM (inactive) | GI50 (MCF7): > 100 µM (inactive) | GI50 (SNB-75): 16.9 µM (inactive) | GI50 (CCRF-CEM): > 100 µM (inactive) | GI50 (HCT-116): > 100 µM (inactive) | GI50 (DU-145): > 100 µM (inactive) | GI50 (SN12C): > 100 µM (inactive) | GI50 (HT-29): > 100 µM (inactive) | GI50 (SK-MEL-2): > 100 µM (inactive) | GI50 (NCI-H522): > 100 µM (inactive) | GI50 (MOLT-4): > 100 µM (inactive) | GI50 (K562): > 100 µM (inactive)

C=CCOC1OC(CO[Si](C)(C)C(C)(C)C)C(OCc2ccccc2)C(OCc2ccccc2)C1OCc1ccccc1 (centres undefined)
GI50 (HCT-15): 88.3 µM | GI50 (SF-295): 22.1 µM (inactive) | GI50 (UACC-257): 46.8 µM (inactive) | GI50 (TK-10): > 100 µM (inactive) | GI50 (CAKI-1): 54.5 µM (inactive) | GI50 (OVCAR-3): 37.2 µM (inactive) | GI50 (IGROV-1): 90.2 µM (inactive) | GI50 (MCF7): 54.3 µM (inactive) | GI50 (SNB-75): 21.5 µM (inactive) | GI50 (CCRF-CEM): > 100 µM (inactive) | GI50 (HCT-116): 23 µM (inactive) | GI50 (DU-145): 39.7 µM (inactive) | GI50 (SN12C): 71.8 µM (inactive) | GI50 (HT-29): 79.1 µM (inactive) | GI50 (SK-MEL-2): 47.8 µM (inactive) | GI50 (NCI-H522): 34 µM (inactive) | GI50 (MOLT-4): > 100 µM (inactive) | GI50 (K562): > 100 µM (inactive)

CC(Br)C(=O)NN1C2=C(Nc3ccccc31)c1cccc3cccc2c13 (centres undefined)
GI50 (HCC 2998): 13.5 µM (inactive) | GI50 (HCT-15): 66.1 µM | GI50 (SF-295): 39.3 µM (inactive) | GI50 (UACC-257): 48.2 µM (inactive) | GI50 (TK-10): 96.4 µM (inactive) | GI50 (CAKI-1): 74 µM (inactive) | GI50 (OVCAR-3): 49.3 µM (inactive) | GI50 (IGROV-1): 34.4 µM (inactive) | GI50 (MCF7): 34.5 µM (inactive) | GI50 (SNB-75): 40.9 µM (inactive) | GI50 (CCRF-CEM): 61.4 µM (inactive) | GI50 (HCT-116): > 100 µM (inactive) | GI50 (DU-145): > 100 µM (inactive) | GI50 (SN12C): > 100 µM (inactive) | GI50 (HT-29): 49.1 µM (inactive) | GI50 (NCI-H522): 92 µM (inactive) | GI50 (MOLT-4): 36.6 µM (inactive) | GI50 (K562): > 100 µM (inactive)
